Measured values as given in PubChem BioAssay (NCI).
Values joined by “and” are separate entries in the source; they are usually repeats but may differ in a detail not shown here. Identical values can stand only once.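 A five-concentration, 48-hour dose response in 96-well plates underlies each endpoint, interpolated linearly between surrounding concentrations. Abbreviation: GI50, concentration required for 50% inhibition of growth. TGI: total growth inhibition.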 *1 amine or outer side, *2 acyl side, *3 side chain or, on linkers, in order; H or OH if unused. Where a SMILES comes first, the peptide text is derived from it. [ ]: non-standard residue; d: D form. The star is where a group is joined. X11 = C/C=C/CC(C)C(O)[C@H](N[*:1])C(=O)[*:2]; Decanoyl = CCCCCCCCCC(=O)*; Leu(ol) = CC(C)C[C@H](N)CO; Iva = CC[C@](C)(N)C(=O)O; Aib = CC(C)(N)C(=O)O

System: MDA-MB-468 breast
Test: inhibition of tumour cell growth, NCI panel, 48 h

| SMILES | GI50 | TGI |
| --- | --- | --- |
| COc1cccc(-c2nc(-c3ccc(NC(=O)OC(C)C)cc3)[nH]c2-c2ccnc(Br)c2)c1 | 2030 nM | 6.5 µM |
| Nc1n[nH]c2cccc(C#Cc3cccc(C(=O)Nc4ccc(CN5CCOCC5)c(C(F)(F)F)c4)c3)c12 | 2870 nM | 9.72 µM |
| CC1(COc2ccc3c(c2)ncn3-c2ccc3cccc(N4CCC(N)CC4)c3n2)COC1 | 1340 nM and 2000 nM | 2.94 µM and 4.95 µM |
| Nc1cc(NN=C(c2ccc(O)cc2)c2ccc(O)cc2)c([N+](=O)[O-])cc1[N+](=O)[O-] | 2190 nM | 4.82 µM |
| CCN(C(=O)N1CCN(c2cc3c(cc2F)c(=O)c(C(=O)O)cn3C2CC2)CC1)c1nc(-c2ccc(Cl)cc2)cs1 | 1490 nM | 6.79 µM |
| O=C(CCCSc1nc(-c2ccccc2)cc(-c2ccccc2)n1)NO | 1490 nM | 4.69 µM |
| Nc1ccc(C2=NNC(=O)Cc3cc4c(cc32)OCCO4)cc1Cl | 1580 nM | 15.9 µM |
| CCCCCCCCCCn1cc[n+](C)c1 | 481 nM |  |
| Nc1c(C(=O)Nc2cccc(C(F)(F)F)c2)sc2nc3c(cc12)CCCCC3 | 394 nM | 3.01 µM |
| COc1ccc(CCN=C2NC(=O)/C(=C/c3ccc4ncccc4c3)S2)cc1 | > 18700 nM | > 25 µM |
| COc1cc(/C(C#N)=C/c2nc3c(N4CCOCC4)nc(Cl)nc3n2C)cc(OC)c1OC | < 13.1 nM |  |
| O=C(Nc1ccc(Oc2ccc(Nc3nc4ccccc4s3)cc2)cc1)Nc1ccc(Cl)c(C(F)(F)F)c1 | 405 nM | 2.2 µM |
| C=C1C(=O)O[C@H]2[C@H]1CC/C(COC(=O)NCc1ccc(Cn3c(=O)sn(-c4ccc(OC)cc4)c3=O)cc1)=C\CC[C@@]1(C)O[C@@H]21 | 1530 nM | 3.54 µM |
| CCN(Cc1ccc(F)cc1)c1cc(Cl)c(CO)c(Cl)c1 | 1890 nM | 6.34 µM |
| Cc1nnc(NC(=O)c2nc(S(=O)(=O)Cc3ccc(F)cc3)ncc2Cl)s1 | 1200 nM | 3.28 µM |
| COCCOc1ccc(-c2nc3ccc(-c4nc5ccc(N6CCN(C)CC6)cc5[nH]4)cc3[nH]2)cc1 | 1420 nM | 4.16 µM |
| COc1ccc(CN2C(=O)/C(=C\c3cc(OC)c(OC)c(OC)c3)c3ccccc32)cc1 | 1940 nM | 5.61 µM |
| COc1cc(-c2ccc3cc(OC)c(OC)c(OC)c3c2)cc(OC)c1OC | 3300 nM | > 100 µM |
| O=C1NC(=NC(CO)Cc2ccccc2)S/C1=C\c1ccc2ncccc2c1 (centres undefined) | 7070 nM and 2140 nM | > 25 µM and 13.7 µM |
| COc1ccc([C@H]2[C@H](O)C(=O)N2c2cc(OC)c(OC)c(OC)c2)cc1O | < 10 nM | > 100 µM |
| CN1CCN(Cc2ccc(NC(=O)c3cncc(C#Cc4cnc5ccc(N6CCSCC6)nn45)c3)cc2C(F)(F)F)CC1 | 146 nM | 0.302 µM |
| COc1cccc(C(=O)NC(c2ccc(C)cc2)c2cc(Cl)c3cccnc3c2O)c1 (centres undefined) | 397 nM | 2.72 µM |

| SMILES | GI50 | TGI |
| --- | --- | --- |
| c1ccc(Sc2ncnc3ccccc23)cc1 | 2980 nM | 12.3 µM |
| Nc1ccccc1SC(CC(=O)c1ccccc1)c1cccc([N+](=O)[O-])c1 (centres undefined) | 15400 nM | 31.3 µM |
| O=C1c2cc3c(cc2-c2c1c1ccc(F)cc1c(=O)n2C[C@H](O)[C@@H](O)[C@H](O)CO)OCO3 | 27.4 nM | 0.0759 µM |
| CCCCCCCCCCCCCCCC[N+](C)(C)Cc1ccccc1 | 328 nM | 1.2 µM |
| Nc1n[nH]c2cc(F)c([C@@H]3Nc4ccc5[nH]ncc5c4[C@H]4C5CCC(C5)[C@@H]34)cc12 (some centres undefined) | 150 nM | 1.9 µM |
| CCn1c(-c2nonc2N)nc2c(C#CC(C)(C)O)nc(OC[C@@H](N)c3ccccc3)cc21 | 4060 nM | 7.68 µM |
| O=C(/C(=C/c1ccc([N+](=O)[O-])cc1)SCc1ccccc1)c1ccc(Cl)cc1 | 2250 nM | 5.83 µM |
| CN(C)c1cc(NN=C(c2ccc(O)cc2)c2ccc(O)cc2)c([N+](=O)[O-])cc1[N+](=O)[O-] | 10100 nM | 22.6 µM |
| C/C=C/CC(C)C(O)[C@H](NC(=O)[C@@H]1CCCN1C(=O)C(C)(C)NC(=O)CCCCCCCCC)C(=O)N[C@@](C)(CC)C(=O)N[C@@H](CCC(N)=O)C(=O)N[C@H](CCC(N)=O)C(=O)NC(C)(C)C(=O)NC(C)(C)C(=O)N[C@@H](CCC(N)=O)C(=O)N[C@H](CC(C)C)C(=O)N[C@H](CO)CC(C)C (stereo partly drawn) (Decanoyl-[Aib]P[X11][Iva]Q[dQ][Aib][Aib]Q[dL][Leu(ol)]) | 1790 nM | 3.42 µM |
| O=C(N/N=C/c1ccc[nH]1)c1[nH]c2ccc(Br)cc2c1-c1ccccc1 | 196 nM | 1.15 µM |
| CCCOc1cc2ccccc2cc1C(=O)Nc1nc(N)c2c(ccc3nccc32)[nH]1 | 54.2 nM | 0.516 µM |
| COc1ccc2nc3cc(Cl)ccc3c(NCCNCC(C)O)c2c1 (centres undefined) | 1550 nM | 3.36 µM |
| CCN1C(=O)N(c2ccccc2)C2NC(=S)N(/N=C/C=C/c3ccccc3OC)C21 (centres undefined) | 114 nM | 14.2 µM |
| Cc1cc(C)cc(NC2=C(Cl)C(=O)c3nc(C)ccc3C2=O)c1 | 1640 nM | 3.2 µM |
| COc1ccc(-c2cn[nH]c2-c2cc(OC)c(OC)c(OC)c2)cc1 | 42.2 nM | 30.3 µM |
| COC[C@H]1Cn2cc(-c3nc(Nc4ccnn4C)ncc3C)nc2C(=O)N1Cc1ccc(F)c(F)c1 | 26300 nM | > 100 µM |
| COc1ccc(/C=N/NC(=O)c2cccc3cc[nH]c23)cc1O | 3350 nM | > 25.2 µM |
| CC(C)[C@@H]1C=C2CC[C@H]3[C@](C)(CN)CCC[C@]3(C)[C@H]2CC1 | 13200 nM | 28.2 µM |
| Clc1cccc(/C=N/Nc2nc(N/N=C/c3cccc(Cl)c3)nc(N3CCOCC3)n2)c1 | 1650 nM | 4.28 µM |
| CN1CC[C@@H](NC(=O)Nc2ccc(C#N)cc2)C[C@@H]1c1nc2ccccc2[nH]1 | 43300 nM | > 100 µM |
| Cc1csc(-c2nnc(Nc3ccc(Oc4ncccc4-c4ccnc(N)n4)cc3)c3ccccc23)c1 | < 11.5 nM | > 100 µM |
